Experimental findings from patent publication US20120165319A1, “INHIBITORS OF INTERLEUKIN-1 BETA CONVERTING ENZYME” (VERTEX PHARMACEUTICALS INCORPORATED, priority 1995, published 2012) are described below.

Usually Ki stands for the dissociation constant of the complex between target and ligand, obtained from inhibition or displacement. The low end stands for tighter binding, the high end for weaker binding. Broadly, the IC50 is the concentration needed to halve the response being measured. Low readings indicate greater potency, high ones weaker potency.

In one test the target is T1, ICE (Homo sapiens, UniProt P29466).
T1 sequence (P29466 120-297 limits assumed): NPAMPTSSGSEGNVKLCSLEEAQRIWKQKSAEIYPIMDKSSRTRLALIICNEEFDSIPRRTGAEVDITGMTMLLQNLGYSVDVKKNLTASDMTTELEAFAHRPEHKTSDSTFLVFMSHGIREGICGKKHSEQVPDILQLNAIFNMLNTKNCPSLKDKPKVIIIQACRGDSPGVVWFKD
T1 sequence (P29466 317-404 limits assumed): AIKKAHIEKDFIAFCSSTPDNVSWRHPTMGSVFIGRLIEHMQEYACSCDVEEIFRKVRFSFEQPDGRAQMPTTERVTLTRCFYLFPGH
The test can be described thus: Enzyme assay with UV-visible substrate (visible ICE assay, Succinyl-Tyr-Val-Ala-Asp-pNitroanilide). The test is classed as biochemical. The method, then: 1. Enzyme Assay with Uv-Visible Substrate
This assay is run using an Succinyl-Tyr-Val-Ala-Asp-pNitroanilide substrate. Synthesis of analogous substrates is described by L. A. Reiter (Int. J. Peptide Protein Res. 12, 87-96 (1994)). The assay mixture contains:
The visible ICE assay is run in a 96-well microtiter plate. Buffer, ICE and DMSO (if inhibitor is present) are added to the wells in the order listed. The components are left to incubate at room temperature for 15 minutes starting at the time that all components are present in all wells. The microtiter plate reader is set to incubate at 37° C. After the 15 minute incubation, substrate is added directly to the wells and the reaction is monitored by following the release of the chromophore (pNA) at 405-603 nm at 37° C. for 20 minutes. A linear fit of the data is performed and the rate is calculated in mOD/min. DMSO is only present during experiments involving inhibitors, buffer is used to make up the volume to 100 μl in the other experiments.
For determination of enzyme inhibition constants (Ki) or the mode of inhibition (competitive, uncompetitive or noncompetitive), the rate data determined in the enzyme assays at varying inhibitor concentrations are computer-fit to standard enzyme kinetic equations (see I. H. Segel, Enzyme Kinetics, Wiley-Interscience, 1975).

Test [1] concerns IL-1β, human peripheral blood mononuclear cells (PBMC). In words: PBMC cell assay: IL-1β assay with human PBMC or enriched adherent mononuclear cells, LPS-stimulated. The test is classed as cell-based. An excerpt:
IL-1β Assay with a Mixed Population of Human Peripheral Blood Mononuclear Cells (PBMC) or Enriched Adherent Mononuclear Cells
Processing of pre-IL-1β by ICE can be measured in cell culture using a variety of cell sources. Human PBMC obtained from healthy donors provides a mixed population of lymphocyte subtypes and mononuclear cells that produce a spectrum of interleukins and cytokines in response to many classes of physiological stimulators. Adherent mononuclear cells from PBMC provides an enriched source of normal monocytes for selective studies of cytokine production by activated cells.
An initial dilution series of test compound in DMSO or ethanol is prepared, with a subsequent dilution into RPMI-10% FBS media (containing 2 mM L-glutamine, 10 mM HEPES, 50 U and 50 ug/ml pen/strep) respectively to yield drugs at 4× the final test concentration containing 0.4% DMSO or 0.4% ethanol. The final concentration of DMSO is 0.1% for all drug dilutions. A concentration titration which brackets the apparent Ki for a test compound determined in an ICE inhibition assay is generally used for the primary compound screen.
Generally 5-6 compound dilutions are tested and the cellular component of the assay is performed in duplicate, with duplicate ELISA determinations on each cell culture supernatant.
PBMC Isolation and IL-1 Assay:
Buffy coat cells isolated from one pint human blood (yielding 40-45 ml final volume plasma plus cells) are diluted with media to 80 ml and LeukoPREP separation tubes (Becton Dickinson) are each overlaid with 10 ml of cell suspension. After 15 min centrifugation at 1500-1800×g, the plasma/media layer is aspirated and then the mononuclear cell layer is collected with a Pasteur pipette and transferred to a 15 ml conical centrifuge tube (Corning). Media is added to bring the volume to 15 ml, gently mix the cells by inversion and centrifuge at 300×g for 15 min. Resuspend the PBMC pellet in a small volume of media, count cells and adjust to 6×10^6 cells/ml.
For the cellular assay, 1.0 ml of the cell suspension is added to each well of a 24-well flat bottom tissue culture plate (Corning), 0.5 ml test compound dilution and 0.5 ml LPS solution (Sigma #L-3012; 20 ng/ml solution prepared in complete RPMI media; final LPS concentration 5 ng/ml). The 0.5 ml additions of test compound and LPS are usually sufficient to mix the contents of the wells. Three control mixtures are run per experiment, with either LPS alone, solvent vehicle control, and/or additional media to adjust the final culture volume to 2.0 ml. The cell cultures are incubated for 16-18 hr at 37° C. in the presence of 5% CO2.
At the end of the incubation period, cells are harvested and transferred to 15 ml conical centrifuge tubes. After centrifugation for 10 min at 200×g, supernatants are harvested and transferred to 1.5 ml Eppendorf tubes. It may be noted that the cell pellet may be utilized for a biochemical evaluation of pre-IL-1β and/or mature IL-1β content in cytosol extracts by western blotting or ELISA with pre-IL-1β specific antisera.
Isolation of Adherent Mononuclear Cells:
PBMC are isolated and prepared as described above. Media (1.0 ml) is first added to wells followed by 0.5 ml of the PBMC suspension. After a one hour incubation, plates are gently shaken and nonadherent cells aspirated from each well. Wells are then gently washed three times with 1.0 ml of media and final resuspended in 1.0 ml media. The enrichment for adherent cells generally yields 2.5−3.0×10^5 cells per well. The addition of test compounds, LPS, cell incubation conditions and processing of supernatants proceeds as described above.
We have used Quantikine kits (R&D Systems) for measurement of mature IL-1β. Assays are performed according to the manufacturer's directions. Mature IL-1β levels of about 1-3 ng/ml in both PBMC and adherent mononuclear cell positive controls are observed. […]

The mark [2] stands for this setting: Homo sapiens, PBMC, * = values obtained upon reassay.

Regarding `CC(=O)Nc1ccccc1C(=O)N[C@H]1CCC(=O)N2CCC[C@@H](C(=O)N[C@H](C=O)CC(=O)O)N2C1=O` [Compound 430], affinity at ICE (Table 5) was put at a Ki of 60 nM. Also, the IC50 in test [1] (setting [2]) was greater than 8000 nM.

With `CC(C)CC(=O)N1C[C@H](NC(=O)c2ccccc2)C(=O)N(CC(=O)N[C@H](C=O)CC(=O)O)c2ccccc21` [Compound 605f, (3S)-3-[(3S)-2-Oxo-3-benzoylamino-5-(3-methylbutyryl)-2,3,4,5-tetrahydro-1H-1,5-benzodiazepin-1-acetylamino]-4-oxo-butyric acid], on ICE (Table 5), the inhibitory constant (Ki) is 475 nM. In test [1] (setting [2]), this compound came in with an IC50 of 12500 nM.

As for `COC(=O)C(=O)N1C[C@H](NC(=O)c2ccccc2)C(=O)N(CC(=O)N[C@H](C=O)CC(=O)O)c2ccccc21` [Compound 605h, (3S)-3-[(3S)-2-oxo-3-benzoylamino-5-methyloxalkyl-2,3,4,5-tetrahydro-1H-1,5-benzodiazepin-1-acetylamino]-4-oxo-butyric acid], the Ki at ICE (Table 5) amounted to 460 nM. Further, the IC50 in test [1] (setting [2]) is greater than 25000 nM.

For `CS(=O)(=O)N[C@H]1CCC(=O)N2CCC[C@@H](C(=O)N[C@@H](CC(=O)O)C(=O)COc3nc4ccccn4c(=O)c3Cl)N2C1=O` [Compound 505f, [3S(1S,9S)]5-(3-Chloro-2-oxy-4H-pyrido[1,2-a]pyrimidin-4-one)-3-[6,10-dioxo-9-(methylsulphonyl)amino-1,2,3,4,7,8,9,10-octahydro-6H-pyridazino[1,2-a][1,2]diazepine-1-carboxamido]-4-oxopentanoic acid], the IC50 in test [1] (Table 17) was determined as 550 nM.

On ICE (Table 5), `O=C[C@H](CC(=O)O)NC(=O)[C@@H]1CCCN2C(=O)CC[C@H](NC(=O)c3cc4ccccc4o3)C(=O)N12` [Compound 467] displayed a Ki of 11 nM. The 50% inhibitory concentration (IC50) in test [1] (setting [2]) worked out at 1900 nM.

As to `COc1cccc(C(=O)N[C@H]2CCC(=O)N3CCC[C@@H](C(=O)N[C@H](C=O)CC(=O)O)N3C2=O)c1` [Compound 451], the Ki at ICE (Table 5) was 4 nM. This compound also returned an IC50 in test [1] (setting [2]) of 1800 nM.

For `CC(=O)N[C@H]1CCC(=O)N2CCC[C@@H](C(=O)N[C@H](C=O)CC(=O)O)N2C1=O` [Compound 214c, [3S(1S,9S)]3-(9-Acetylamino-6,10-dioxo-1,2,3,4,7,8,9,10-octahydro-6H-pyridazino-[1,2-a][1,2]diazepine-1-carboxamido)-4-oxobutanoic acid], the affinity at ICE (Table 5), expressed as Ki, was 1200 nM. In addition, in test [1] (setting [2]), inhibition was half-maximal at 5000 nM (IC50).

Consider `CC(=O)Nc1ccc(C(=O)N[C@H]2CCC(=O)N3CCC[C@@H](C(=O)N[C@H](C=O)CC(=O)O)N3C2=O)cc1NC(C)=O` [Compound 480], for which the Ki at ICE (Table 5) is 25 nM. Further, 2300 nM corresponded to half-maximal inhibition in test [1] (setting [2]) (IC50).

Compound `O=C(O)C[C@H](NC(=O)CN1C(=O)[C@@H](NC(=O)CCc2ccccc2)CN(C(=O)CCc2ccccc2)c2ccccc21)C(=O)c1nc2cc(Cl)cc(Cl)c2o1` [Compound 609a, (3S)-3-[(3S)-2-Oxo-3-(3-phenylpropionylamino)-5-(3-phenylpropionyl)-2,3,4,5-tetrahydro-1H-1,5-benzodiazepin-1-acetylamino]-4-(5,7-dichlorobenzoxazol-2-yl)-4-oxo-butyric acid] yielded a Ki at ICE (Table 5) of 114 nM. In test [1] (setting [2]), this compound came in with an IC50 greater than 30000 nM.

The compound `CS(=O)(=O)N1C[C@H](NC(=O)c2ccccc2)C(=O)N(CC(=O)N[C@H](C=O)CC(=O)O)c2ccccc21` [Compound 605m, (3S)-3-[(3S)-2-Oxo-3-benzoylamino-5-methanesulfonyl-2,3,4,5-tetrahydro-1H-1,5-benzodiazepin-1-acetylamino]-4-oxo-butyric acid] showed an inhibition constant (Ki) on ICE (Table 5) of 650 nM. Besides, in test [1] (setting [2]), inhibition was half-maximal at 20000 nM (IC50).

`CC(=O)C(=O)N1C[C@H](NC(=O)c2ccccc2)C(=O)N(CC(=O)N[C@H](C=O)CC(=O)O)c2ccccc21` [Compound 605i, (3S)-3-[(3S)-2-Oxo-3-benzoylamino-5-acetylcarbonyl-2,3,4,5-tetrahydro-1H-1,5-benzodiazepin-1-acetylamino]-4-oxo-butyric acid] came in with a Ki at ICE (Table 5) of 680 nM. The compound also had an IC50 in test [1] (setting [2]) greater than 20000 nM.

With `O=C[C@H](CC(=O)O)NC(=O)[C@@H]1CCCN2C(=O)CC[C@H](NC(=O)c3ccnc4ccccc34)C(=O)N12` [Compound 435], the inhibition constant (Ki) at ICE (Table 5) turned out to be 8 nM. In addition, the half-maximal inhibitory concentration (IC50) in test [1] (setting [2]) was found to be 4400 nM.

In turn, `CNC(=O)N[C@H]1CCC(=O)N2CCC[C@@H](C(=O)N[C@H](C=O)CC(=O)O)N2C1=O` [Compound 420] had a Ki at ICE (Table 5) of 1200 nM. The IC50 is greater than 8000 nM in test [1] (* = values obtained upon reassay) and 8000 nM in test [1] (setting [2]).

On ICE (Table 17), `CNCC(=O)N1C[C@H](NC(=O)c2cccc3ccccc23)C(=O)N(CC(=O)N[C@H](C=O)CC(=O)O)c2ccccc21` [Compound 650, (3S)-3-[(3S)-2-Oxo-3-(1-naphthoyl)amino-5-(2-methylamino)acetyl-2,3,4,5-tetrahydro-1H-1,5-benzodiazepine-1-acetylamino]-4-oxo-butyric acid] registered an inhibitory constant (Ki) of 550 nM. This compound also yielded an IC50 in test [1] (Homo sapiens, PBMC, Table 17) of 4000 nM.

In turn, `O=C[C@H](CC(=O)O)NC(=O)[C@@H]1CCCN2C(=O)CC[C@H](NC(=O)c3cccnc3)C(=O)N12` [Compound 454] gave a Ki on ICE (Table 5) of 45 nM. The same compound came in with an IC50 in test [1] (setting [2]) of 2500 nM.

Compound `CS(=O)(=O)N[C@H]1CCC(=O)N2CCC[C@@H](C(=O)N[C@@H](CC(=O)O)C(=O)CSc3nnnn3-c3ccccc3)N2C1=O` [Compound 280b, [3S(1S,9S)]3-(6,10-Dioxo-9-methanesulphonamido-1,2,3,4,7,8,9,10-octahydro-6H-pyridazino[1,2-a][1,2]diazepine-1-carboxamido)-4-oxo-5(1-phenyl-1H-tetrazole-5-thio)pentanoic acid] came in with a 50% inhibitory concentration (IC50) in test [1] (Table 17) of 13000 nM.

As to `CS(=O)(=O)N[C@H]1CCC(=O)N2CCC[C@@H](C(=O)N[C@@H](CC(=O)O)C(=O)COC(=O)c3ccccc3Oc3ccccc3)N2C1=O` [Compound 505c, [3S(1S,9S)]3-[6,10-Dioxo-9-(methanesulphonylamino)-1,2,3,4,7,8,9,10-octahydro-6H-pyridazino[1,2-a][1,2]diazepine-1-carboxamido]-4-oxo-5-(2-phenoxybenzoyloxy)pentanoic acid], in test [1] (Table 17), 1500 nM corresponded to half-maximal inhibition (IC50). This IC50 is about 8.7-fold lower than that of the compound before.

For `CS(=O)(=O)N[C@H]1CCC(=O)N2CCC[C@@H](C(=O)N[C@@H](CC(=O)O)C(=O)COC(=O)c3cccc(Oc4ccccc4)c3)N2C1=O` [Compound 505d, [3S(1S,9S)]3-[6,10-Dioxo-9-(methanesulphonylamino)-1,2,3,4,7,8,9,10-octahydro-6H-pyridazino[1,2-a][1,2]diazepine-1-carboxamido]-4-oxo-5-(3-phenoxybenzoyloxy)pentanoic acid], in test [1] (Table 17), the IC50 was greater than 20000 nM.
